Key:
[1] = Cytotoxicity against cat CRFK cells assessed as cell viability at 10 uM after 24 hrs by MTT assay; assay type: cell-based, Felis catus; details: read-out: Activity
[2] = Cytotoxicity against IL2-independent cat FL-4 cells assessed as reduction in cell viability after 7 days by MTT assay; assay type: cell-based, Felis catus; details: IL2-independent FL-4 cells
[3] = system: Feline immunodeficiency virus; test: Antiviral activity against Feline immunodeficiency virus infected in cat FL-4 cells assessed as inhibition of viral replication after 7 days by quantitative RT-PCR analysis; assay type: functional, organism-based; details: FL-4, 168 h
[4] = Therapeutic index, ratio of CC50 for cat FL-4 cells to EC50 for Feline immunodeficiency virus infected in cat FL-4 cells; assay type: cell-based; details: read-out: Ratio CC50/EC50

Row | SMILES | EC50 [3] | viability at 24 h, 10 µM [1] | CC50 at 168 h [2] | selectivity ratio [4]
1 | Cc1nnc(C(=O)NC(C)(C)c2nc(C(=O)NCc3ccc(F)cc3)c(O)c(=O)n2C)o1 [RALTEGRAVIR] | – | > 100% | > 100 µM | > 10000
2 | CCn1c(Cl)c2c(c1Cl)SSc1c(c(Cl)n(CC)c1Cl)SS2 | > 100 µM | > 100% | > 100 µM | 1
3 | Cn1c2c(c3ccccc31)SSc1c(c3ccccc3n1C)SS2 | 0.0429 µM | > 100% | > 100 µM | > 2330
4 | Cc1cn([C@H]2C[C@H](N=[N+]=[N-])[C@@H](CO)O2)c(=O)[nH]c1=O [ZIDOVUDINE] | – | > 100% | > 100 µM | > 18.8
5 | CCn1c(C)c2c(c1C)SSc1c(c(C)n(CC)c1C)SS2 | 60.7 µM | > 100% | > 100 µM | 1.6
6 | Cc1c2c(c(C)n1Cc1ccccc1)SSc1c(c(C)n(Cc3ccccc3)c1C)SS2 | 3.08 µM | > 100% | 58.2 µM | 18.9

Second part, led by results:

Row | EC50 [3] | SMILES | viability at 24 h, 10 µM [1] | CC50 at 168 h [2] | selectivity ratio [4]
7 | 14.5 µM | CC(C)(C)n1cc2c(c1)SSc1cn(C(C)(C)C)cc1SS2 | > 100% | > 100 µM | > 6.9
8 | 0.205 µM | Cn1c(Cl)c2c(c1Cl)SSc1c(c(Cl)n(C)c1Cl)SS2 | > 100% | > 100 µM | > 489
9 | > 100 µM | CCN(CC)c1sc(N(CC)CC)c2c1SSc1c(N(CC)CC)sc(N(CC)CC)c1SS2 | > 100% | > 100 µM | 1
10 | 0.0309 µM | COc1cc2c(cc1OC)SSc1cc(OC)c(OC)cc1SS2 | 75.3% | > 100 µM | > 3240
11 | 0.0932 µM | c1c2c(cc3c1SSc1cc4c(cc1SS3)OCO4)OCO2 | 77% | 5.79 µM | 62.1
12 | 0.0689 µM | c1c2c(cc3c1SSc1cc4c(cc1SS3)OCCO4)OCCO2 | 91.1% | > 100 µM | > 1450
